Measured values from patent US20190276481A1, “Liver Prodrugs of Mitochondrial Proton Ionophores” (NEUROVIVE PHARMACEUTICAL AB, priority 2016, published 2019).

What was measured:
[1] = tested on: isolated rat liver mitochondria; assay: Uncoupling potential in isolated mitochondria (free mitochondrial uncoupling, oxygraph respiration); assay type: biochemical; settings: fixed concentrations, vs DMSO control, FIGS. 1, 2, 4-6
Procedure: The potency of mitochondrial uncoupling without prodrug metabolism may be tested as follows:
Isolated rat liver mitochondria are prepared according to Hansson et al (Hansson et al (Brain Res. 2003 Jan. 17; 960(1-2):99-111.). Respiration is measured at a constant temperature of 37° C. in a high-resolution oxygraph (Oxygraph-2k Oroboros Instruments, Innsbruck, Austria) in 2 ml glass chambers with stirrer speed 750 rpm. Data is recorded with DatLab software (Oroboros Instruments, Innsbruck, Austria) with sampling rate set to 2 s at an oxygen concentration in the range of 210-50 μM O2. If necessary, reoxygenation is performed by partially raising the chamber stopper for a brief air equilibration. Instrumental background oxygen flux is measured in a separate set of experiments and automatically corrected for in the ensuing experiments according to the manufacturer's instructions. To measure respiration of isolated mitochondria, samples are suspended in a mitochondrial respiration medium (MiR05) containing sucrose 110 mM, HEPES 20 mM, taurine 20 mM, K-lactobionate 60 mM, MgCl2 3 mM, KH2PO4 10 mM, EGTA 0.5 mM, BSA 1 g/l, pH 7.1. After reaching stabilized respiration in the presence of substrates (malate (5 mM), glutamate (5 mM), pyruvate (5 mM) and succinate (10 mM)), state 3 respiration is induced by supplementation with ADP (1 mM) followed by addition of oligomycin (1 μg/ml, ATP-synthase inhibitor) causing state 4O. State 4O is a respiratory state dependent on the back-flux of protons across the mitochondrial membrane due to inhibition of the ATP-synthase and in the presence of saturating substrate concentrations and ADP. Drug candidates and their respective payloads of known protonophores are given at fixed concentrations to induce uncoupled respiration. Rotenone (2 μM, complex I [CI] inhibitor), antimycin-A (1 μg/ml, complex III [CIII] inhibitor) and sodium azide (10 mM) are then added to inhibit the ETS providing the residual, non-mitochondrial oxygen consumption which all respiratory values are corrected for.

[2] = tested on: HepG2 cells (hepatic) vs platelets (extra-hepatic); assay: In vitro uncoupling in HepG2 cells (hepatic) vs platelets (extra-hepatic); assay type: cell-based; settings: high maximal uncoupling at low concentrations in HepG2 cells; FIGS. 7-12
Procedure: (§1) For respiration measurements in HepG2 cells and platelets, cells are suspended in a mitochondrial respiration medium MiR05 at 37° C. in a high-resolution oxygraph (Oxygraph-2k Oroboros Instruments, Innsbruck, Austria). […] To evaluate the contribution of respiration independent of ADP phosphorylation, oligomycin (1 μg/ml, ATP-synthase inhibitor) is sequentially added inducing LEAK respiration state (a respiratory state where oxygen consumption is dependent on the back-flux of protons across the mitochondrial membrane). Drug candidates and known protonophores are carefully titrated to induce maximal uncoupled respiration/maximal rate of the ETS (electron transport system) at endogenous substrate supply and continued until a decrease or at least no further increase of uncoupled respiration is observed. Rotenone (2 μM, complex I [CI] inhibitor) and antimycin-A (1 μg/ml, complex III [CIII] inhibitor) are then added to inhibit the ETS, thus providing the residual, non-mitochondrial oxygen consumption, which all values were corrected for.
(§2) The potency of mitochondrial uncoupling with prodrug metabolism be tested as follows: • a) HepG2 cells (to simulate uncoupling with liver cell metabolism) • b) Platelets (to simulate uncoupling in blood)
It is advantageous to have an increased level of uncoupling in hepatic tissue as compared to extra-hepatic tissue. To test for this, compounds were tested in an in vitro uncoupling assay (see Assays for evaluating mitochondrial uncoupling in intact liver cells and platelets in general methods) in HepG2 cells (hepatic) vs platelets (extra-hepatic).

[3] = Relative liver exposure vs extra-hepatic organs: salicylanilide levels after oral dosing; assay type: in vivo; settings: CD-1 mice
Procedure: For example, mice or rats are dosed with 1 or 3 mg/kg of the compound of the invention i.v. or 1, 5 or 10 mg/kg of the compound of the invention p.o. Blood samples are taken at 5 min, 15 min, 1 h, 4 h and 24 h intervals, and the concentration of the compound of the invention in the sample is determined via LCMS-MS. The time-course of plasma or whole blood concentrations can then be used to derive key parameters such as the area under the plasma or blood concentration-time curve (AUC—which is directly proportional to the total amount of unchanged drug that reaches the systemic circulation), the maximum (peak) plasma or blood drug concentration, the time at which maximum plasma or blood drug concentration occurs (peak time), additional factors which are used in the accurate determination of bioavailability include: the compound's terminal half-life, total body clearance, steady-state volume of distribution and F %.
As it is advantageous to have an increased ratio of liver uncoupling versus extra hepatic uncoupling, 3 mg/kg salicylanilide or 10 mg/kg compound 14 or 10 mg/kg compound 23 (which releases salicylanilide) were dosed orally to CD-1 mice and levels of salicylanilide were measured in blood, muscle and liver samples before and after dosing (see general methods). The ratio of liver vs extra-hepatic salicylanilide was then assessed, with a high ratio desirable, as this is anticipated to lead to reduced off-target uncoupling and toxicity.

[4] = Caco-2 permeability assay; assay type: in vitro ADME; settings: human
Procedure: (§3) The permeability coefficient (Papp) is calculated from the following equation:
(§4) Where dQ/dt is the amount of compound in basal (A-B) or apical (B-A) compartment as a function of time (nmol/s). C0 is the initial concentration in the donor (apical or basal) compartment (Mean of T=0) (nmol/mL) and A is the area of the transwell (cm^2).
(§5) The efflux ratio is then calculated as: […]
(§6) Cell permeability may be tested as follows: The test compound is dissolved to 10 mM in DMSO and then diluted further in buffer to produce a final 10 μM dosing concentration. The fluorescence marker lucifer yellow is also included to monitor membrane integrity. Test compound is then applied to the apical (A) surface of Caco-2 cell monolayers and compound permeation into the basolateral (B) compartment is measured. This is performed in the reverse direction (basolateral to apical) to investigate active transport (efflux). LC-MS/MS is used to quantify levels of both the test and standard control compounds (such as Propanolol and Acebutolol).

[5] = Hsaio et al., 2005; cited from earlier work
HepG2 cells = assay: Mitochondrial uncoupling assay in intact HepG2 liver cells; assay type: cell-based; settings: FIG. 3
Procedure: as §1, §2

Caco-2 cell monolayers = assay: Caco-2 permeability assay; assay type: in vitro ADME
Procedure: as §3, §4, §5, §6

COP(=O)(N[C@@H](C)C(=O)OC(C)C)OCOc1ccc([N+](=O)[O-])cc1[N+](=O)[O-] (stereo partly shown) [Compound 1]
uncoupling in isolated mitochondria (without prodrug metabolism) [1]: reduced, little or no uncoupling

CC(C)OC(=O)[C@H](C)NP(=O)(N[C@@H](C)C(=O)OC(C)C)OCOc1ccc([N+](=O)[O-])cc1[N+](=O)[O-] [Compound 2]
uncoupling in isolated mitochondria (without prodrug metabolism) [1]: reduced, little or no uncoupling

CC(C)OC(=O)[C@H](C)NP(=O)(N[C@@H](C)C(=O)OC(C)C)OCOc1ccc([N+](=O)[O-])cc1 [Compound 4]
uncoupling in isolated mitochondria (without prodrug metabolism) [1]: reduced, little or no uncoupling

CC(C)OC(=O)[C@H](C)NP(=O)(N[C@@H](C)C(=O)OC(C)C)OCOc1ccc(Cl)cc1C(=O)Nc1ccc([N+](=O)[O-])cc1Cl [Compound 6]
uncoupling in isolated mitochondria (without prodrug metabolism) [1]: reduced, little or no uncoupling
selectivity of uncoupling, HepG2 cells vs platelets [2]: selective uncoupling in HepG2 cells as compared to platelets

C[C@H](NP(=O)(N[C@@H](C)C(=O)OCC(C)(C)C)OCOc1ccc([N+](=O)[O-])cc1)C(=O)OCC(C)(C)C [Compound 9]
uncoupling in isolated mitochondria (without prodrug metabolism) [1]: reduced, little or no uncoupling
selectivity of uncoupling, HepG2 cells vs platelets [2]: selective uncoupling in HepG2 cells as compared to platelets

CC(C)OC(=O)[C@H](Cc1ccccc1)NP(=O)(N[C@@H](Cc1ccccc1)C(=O)OC(C)C)OCOc1ccc([N+](=O)[O-])cc1[N+](=O)[O-] [Compound 11]
uncoupling in isolated mitochondria (without prodrug metabolism) [1]: reduced, little or no uncoupling
selectivity of uncoupling, HepG2 cells vs platelets [2]: selective uncoupling in HepG2 cells as compared to platelets

CC(C)OC(=O)[C@H](Cc1ccccc1)NP(=O)(N[C@@H](Cc1ccccc1)C(=O)OC(C)C)OCOc1ccccc1C(=O)Nc1ccccc1 [Compound 14]
uncoupling in isolated mitochondria (without prodrug metabolism) [1]: reduced, little or no uncoupling
selectivity of uncoupling, HepG2 cells vs platelets [2]: selective uncoupling in HepG2 cells as compared to platelets
ratio of liver to extra-hepatic exposure (in words) [3]: desirable ratios of liver to extra-hepatic exposure
Salicylanilide in blood after 1 h ([3]; 3 mg/kg salicylanilide or 10 mg/kg compound 14 or 23): BQL

COP(=O)(N[C@@H](C)C(=O)OC(C)C)OCOc1ccc(Cl)cc1C(=O)Nc1ccc([N+](=O)[O-])cc1Cl (stereo partly shown) [Compound 18]
uncoupling in isolated mitochondria (without prodrug metabolism) [1]: reduced, little or no uncoupling
selectivity of uncoupling, HepG2 cells vs platelets [2]: selective uncoupling in HepG2 cells as compared to platelets

C[C@H](NP(=O)(N[C@@H](C)C(=O)OCC(C)(C)C)OCOc1ccccc1C(=O)Nc1ccccc1)C(=O)OCC(C)(C)C [Compound 23]
uncoupling in isolated mitochondria (without prodrug metabolism) [1]: reduced, little or no uncoupling
selectivity of uncoupling, HepG2 cells vs platelets [2]: selective uncoupling in HepG2 cells as compared to platelets
ratio of liver to extra-hepatic exposure (in words) [3]: desirable ratios of liver to extra-hepatic exposure

O=[N+]([O-])c1ccc(O)c([N+](=O)[O-])c1 [DNP, 2,4 dinitrophenol]
uncoupling in isolated mitochondria (without prodrug metabolism) [1]: potent uncoupling
efflux ratio at 10 µM [4]: 1.1
Papp A→B at 10 μM ([4]; apical to basolateral): 24 ×10⁻⁶ cm/s
Papp B→A at 10 μM ([4]; basolateral to apical): 27 ×10⁻⁶ cm/s
acute administration that can be lethal [5]: 20-50 mg/kg body weight

O=C(Nc1ccccc1)c1ccccc1O [Salicylanilide, 2-Hydroxy-N-phenylbenzamide]
maximal uncoupling effect compared to DNP (HepG2 cells): lesser maximal uncoupling effect
uncoupling potency compared to DNP (HepG2 cells): more potent compared to DNP
ratio of liver to extra-hepatic exposure (in words) [3]: desirable ratios of liver to extra-hepatic exposure
efflux ratio [4]: 0.8
Papp A→B ([4]; apical to basolateral): 39.5 ×10⁻⁶ cm/s
Papp B→A ([4]; basolateral to apical): 33 ×10⁻⁶ cm/s
Caco-2 efflux ratio compared to DNP (in words) (Caco-2 cell monolayers): reduced efflux ratio
Caco-2 permeability compared to DNP (in words) (Caco-2 cell monolayers): increased permeability
